Where two headings read alike, the source gives them in different places.
What was measured:
[1] = cited from earlier work
C57BL/6 mice = test: Elevated plus maze after acute drug administration; assay type: in vivo, mouse; conditions: for anxiety in the elevated plus maze compared to Control mice: FIG. 1A legend, result in words; for time spent in the open arm of the elevated plus maze: reboxetine specificity experiment, FIG. 1D, saline 12.3±3.2, n=8 mice per group
Protocol: Animals and Housing. 7-8 week old male C57BL/6 mice were obtained from the National Cancer Institute (Frederick, Md.) and housed in the Broadway Research Building Johns Hopkins animal facility. Housing and behavioral testing rooms were temperature controlled with a 12 h light/dark cycle, and all behavioral tests were conducted during the light cycle. Animal protocols were approved by the Johns Hopkins University School of Medicine Animal Care and Use Committee.
Drug administration. […]
Elevated Plus Maze. Mice (n=10) were tested on the elevated plus maze in an isolated behavior suite. Mice were placed in the center of the maze and given 5 minutes to freely explore the maze. Time spent in open and closed arms of the maze were tracked using ANY-maze software (Stoelting, Wood Dale, Ill.).
Statistical Analyses. Statistical analyses were completed using GraphPad Prism 5.0 (La Jolla, Calif.). Comparisons between groups in the animal studies were made with one-way ANOVA, and P values <0.05 were considered statistically significant. The Johns Hopkins Institute for Clinical and Translational Research Biostatistics Center provided statistical support.

[2] = assumed from literature for one-compartment model

CN(C)CCCC1(c2ccc(F)cc2)OCc2cc(C#N)ccc21 (centres unmarked) [citalopram]
Tmax [1, 2]: 4 h | V (apparent volume of distribution) [1, 2]: 840 L | t1/2 [1, 2]: 35 h

COCCCC/C(=N\OCCN)c1ccc(C(F)(F)F)cc1 [fluvoxamine]
Cmax ([1]; after a single 50 mg dose): 30 ng/mL | Tmax ([1]; after a single 50 mg dose): 6 h | t1/2 ([1]; after a single 50 mg dose): 19 h

COc1ccccc1N1CCN(CCN(C(=O)C2CCCCC2)c2ccccn2)CC1 [WAY-100635]
anxiety in the elevated plus maze compared to Control mice (C57BL/6 mice): no effect | reversal of anxiety when co-administered with the SNRI reboxetine (C57BL/6 mice; FIG. 1D legend): does not reverse anxiety | reversal of anxiety when coadministered with the SSRI fluoxetine (C57BL/6 mice; FIG. 1D legend): reverses anxiety | time spent in the open arms of the elevated plus maze (C57BL/6 mice; acute treatment 40 minutes before testing, fluoxetine 20 mg/kg, WAY-100635 0.3 mg/kg, FIG. 1A, Control 20.03±10.12): 20.82 ± 15.18 s

Fc1ccc([C@@H]2CCNC[C@H]2COc2ccc3c(c2)OCO3)cc1 [paroxetine]
Cmax ([1]; after a single 30 mg dose): 17.6 ng/mL | Tmax ([1]; after a single 30 mg dose): 6.3 h | t1/2 ([1]; after a single 30 mg dose): 16 h

CNCCC(Oc1ccc(C(F)(F)F)cc1)c1ccccc1 (centres unmarked) [fluoxetine]
trough concentration at steady-state ([1]; Prozac Full Prescribing Information): 72 to 258 ng/mL | half-life (t1/2) ([1]; single 40-mg dose of Prozac): 48 h | peak drug concentration (Cmax) ([1]; single 40-mg dose of Prozac): 35 ng/mL | anxiety in the elevated plus maze compared to Control mice (C57BL/6 mice): more anxious | less time in the open arms compared to Control mice (C57BL/6 mice; acute fluoxetine 20 mg/kg vs saline): 72% | time spent in the open arm of the elevated plus maze (C57BL/6 mice): 4.0 ± 4.5 s

CN[C@H]1CC[C@@H](c2ccc(Cl)c(Cl)c2)c2ccccc21 [sertraline]
Tmax [1, 2]: 6.5 h | V (apparent volume of distribution) [1, 2]: 1400 L | t1/2 [1, 2]: 26 h

CCOc1ccccc1OC(c1ccccc1)C1CNCCO1 (centres unmarked) [reboxetine]
time spent in the open arm of the elevated plus maze (C57BL/6 mice): 10.6 ± 10.8 s

COc1ccc(C(CN(C)C)C2(O)CCCCC2)cc1 (centres unmarked) [venlafaxine]
Tmax [1, 2]: 8 h | V (apparent volume of distribution) [1, 2]: 426 L | t1/2 [1, 2]: 16.9 h

— patent publication US20160375016A1, “METHODS FOR REDUCING ANXIETY AND IMPULSIVITY IN SUBJECTS INITIATING TREATMENT WITH SEROTONIN REUPTAKE INHIBITORS” (THE JOHNS HOPKINS UNIVERSITY, priority 2013, published 2016)
